The values that follow come from US5763404A, “Methods for using LHRH antagonists with low histamine release” (priority 1995, dated 1998).

Starred links: 1 amine or outer side, 2 acyl side, 3 side chain; linkers in the order of their positions; H or OH if unused. Non-standard residues stand in square brackets, D forms with d. Residues, ends and D or L forms follow the SMILES beside them. *: point of attachment. dAla(cis-4-NHCOPyz-cHex) = N[C@H](C[C@H]1CC[C@@H](NC(=O)c2cnccn2)CC1)C(=O)O; X2 = O=C(N[C@H]1CC[C@@H](C[C@H](N[*:1])C(=O)[*:2])CC1)c1cnccn1; X7 = O=C(N[C@H]1CC[C@H](C[C@@H](N[*:1])C(=O)[*:2])CC1)c1cccnc1; dPhe(4-Cl) = N[C@H](Cc1ccc(Cl)cc1)C(=O)O; Pyrimidin2yl(4,6-Me2) = Cc1cc(C)nc(*)n1; X10 = O=C([C@@H](Cc1cnccn1)N[*:1])[*:2]; d2Nal = N[C@H](Cc1ccc2ccccc2c1)C(=O)O; dLys(iPr) = CC(C)NCCCC[C@@H](N)C(=O)O; Nicotinoyl(6-Me) = Cc1ccc(C(=O)*)cn1; Lys(iPr) = CC(C)NCCCC[C@H](N)C(=O)O; Orn(iPr) = CC(C)NCCC[C@H](N)C(=O)O; Benzoyl(4-OH) = O=C(c1ccc(O)cc1)*; Pyrazinecarbonyl = O=C(c1cnccn1)*; aIle = CC[C@@H](C)[C@H](N)C(=O)O; d3Pal = N[C@H](Cc1cccnc1)C(=O)O; Nicotinoyl = O=C(c1cccnc1)*; Picolinoyl = O=C(c1ccccn1)*; Orn = NCCC[C@H](N)C(=O)O; Nva = CCC[C@H](N)C(=O)O; Abu = CC[C@H](N)C(=O)O

The first data set has as its system anaesthesized rats. As to the kind of experiment: wheal test, intradermal injection. The class given is in vivo, rat. Also noted: Wheal (wheal response): unit not given here. The note with it: 10 ug peptide intradermally. The protocol: The antiovulatory activity, AOA, in rats was determined as described by Humphries et al. (12). Antiovulation assays were performed by counting, on estrus, the number of ova shed by 4-day cycling rats after a single sc injection of the LH-RH analogue in corn oil was administered between 12 and 12:30 p.m. on […]. The control rats received 0.3 mL of the vehicle. The wheal test was performed by intradermally injecting 10 ug of peptide in 100 ul of saline into anaesthesized rats, measuring the ideally circular wheal response and calculating the area. The in vitro histamine release test was done as described by Karten et al. (4). A suspension of rat mast cells was added to increasing concentrations of peptide and the mixture was incubated for a few minutes followed by centrifugation to collect the histamine in the supernatant. A PIPES (piperazine-N,N'-bis[2-ethanesulfonic acid]) medium buffered at pH 7.4 containing NaCl 119 mM, KCl 5 mM, PIPES 25 mM, NaOH 40 mM, glucose 5.6 mM, CaCl2 1 mM, and 0.1% bovine serum albumin was used. This was designated as PIPES AC. Peptides were dissolved in double distilled H2 O at a concentration of 2 mg/ml and stored at -20° C. They were thawed just prior to testing, diluted in PIPES AC and prewarmed for five minutes at 37° C. Peptides studied were stable to heating at 56° C. for two hours, and to freezing and thawing.
`CC(=O)N[C@H](Cc1ccc2ccccc2c1)C(=O)N[C@H](Cc1ccc(Cl)cc1)C(=O)N[C@H](Cc1cccnc1)C(=O)N[C@@H](CO)C(=O)N[C@@H](CCCCNC(=O)c1cccnc1)C(=O)N[C@H](C[C@H]1CC[C@H](NC(=O)c2cccnc2)CC1)C(=O)N[C@@H](CC(C)C)C(=O)N[C@@H](CCCCNC(C)C)C(=O)N1CCC[C@H]1C(=O)N[C@H](C)C(N)=O` [IBR 25647] (Ac-[d2Nal][dPhe(4-Cl)][d3Pal]SK(Nicotinoyl)[X7]L[Lys(iPr)]P[dA]-NH2): the “Wheal Area” value is 119.5 ± 3.2 mm^2 /10 μg. The same measure, in the same setting: in the case of `CC(=O)N[C@H](Cc1ccc2ccccc2c1)C(=O)N[C@H](Cc1ccc(Cl)cc1)C(=O)N[C@H](Cc1cccnc1)C(=O)N[C@@H](CO)C(=O)N[C@@H](CCCCNC(=O)c1ccccn1)C(=O)N[C@H](C[C@H]1CC[C@@H](NC(=O)c2cnccn2)CC1)C(=O)N[C@@H](CC(C)C)C(=O)N[C@@H](CCCCNC(C)C)C(=O)N1CCC[C@H]1C(=O)N[C@H](CO)C(N)=O` [compound 26348] (Ac-[d2Nal][dPhe(4-Cl)][d3Pal]SK(Picolinoyl)[dAla(cis-4-NHCOPyz-cHex)]L[Lys(iPr)]P[dS]-NH2) it was 122.8 ± 5.7 mm^2 /10 μg. Same read-out and setting: in the case of `CC(=O)N[C@H](Cc1ccc2ccccc2c1)C(=O)N[C@H](Cc1ccc(Cl)cc1)C(=O)N[C@H](Cc1cccnc1)C(=O)N[C@@H](CO)C(=O)N[C@@H](CCCCNC(=O)c1ccccn1)C(=O)N[C@H](CCCCNC(=O)c1ccccn1)C(=O)N[C@@H](C)C(=O)N[C@@H](CCCCNC(C)C)C(=O)N1CCC[C@H]1C(=O)N[C@H](C)C(N)=O` [compound 26099] (Ac-[d2Nal][dPhe(4-Cl)][d3Pal]SK(Picolinoyl)[dK](Picolinoyl)A[Lys(iPr)]P[dA]-NH2) it was 103.9 ± 3.7 mm^2 /10 μg; in that of `CC(=O)N[C@H](Cc1ccc2ccccc2c1)C(=O)N[C@H](Cc1ccc(Cl)cc1)C(=O)N[C@H](Cc1cccnc1)C(=O)N[C@@H](CO)C(=O)N[C@@H](Cc1ccc(O)cc1)C(=O)N[C@H](C[C@H]1CC[C@@H](NC(=O)c2cnccn2)CC1)C(=O)N[C@@H](CC(C)C)C(=O)N[C@@H](CCCCNC(C)C)C(=O)N1CCC[C@H]1C(=O)N[C@H](C)C(N)=O` [compound 26418] (Ac-[d2Nal][dPhe(4-Cl)][d3Pal]SY[dAla(cis-4-NHCOPyz-cHex)]L[Lys(iPr)]P[dA]-NH2), 95.0 ± 0 mm^2 /10 μg; in that of `CC(=O)N[C@H](Cc1ccc2ccccc2c1)C(=O)N[C@H](Cc1ccc(Cl)cc1)C(=O)N[C@H](Cc1cccnc1)C(=O)N[C@@H](CO)C(=O)N[C@@H](CCCCNC(=O)c1ccccn1)C(=O)N[C@H](C[C@H]1CC[C@@H](NC(=O)c2cnccn2)CC1)C(=O)N[C@@H](Cc1ccccc1)C(=O)N[C@@H](CCCCNC(C)C)C(=O)N1CCC[C@H]1C(=O)N[C@H](C)C(N)=O` [compound 26366] (Ac-[d2Nal][dPhe(4-Cl)][d3Pal]SK(Picolinoyl)[dAla(cis-4-NHCOPyz-cHex)]F[Lys(iPr)]P[dA]-NH2), 116.2 ± 3.2 mm^2 /10 μg.

Consider `CC[C@H](NC(=O)[C@@H](CCCCNC(=O)c1ccccn1)NC(=O)[C@H](CCCCNC(=O)c1ccc(O)cc1)NC(=O)[C@H](CO)NC(=O)[C@@H](Cc1cccnc1)NC(=O)[C@@H](Cc1ccc(Cl)cc1)NC(=O)[C@@H](Cc1ccc2ccccc2c1)NC(C)=O)C(=O)N[C@@H](CCCCNC(C)C)C(=O)N1CCC[C@H]1C(=O)N[C@H](C)C(N)=O` [compound 26381] (Ac-[d2Nal][dPhe(4-Cl)][d3Pal]SK(Benzoyl(4-OH))[dK](Picolinoyl)[Abu][Lys(iPr)]P[dA]-NH2), for which the “Wheal Area” value is recorded as 95.1 ± 5.0 mm^2 /10 μg. Turning to `CC(=O)N[C@H](Cc1ccc2ccccc2c1)C(=O)N[C@H](Cc1ccc(Cl)cc1)C(=O)N[C@H](Cc1cccnc1)C(=O)N[C@@H](CO)C(=O)N[C@@H](CCCCNC(=O)c1cccnc1)C(=O)N[C@H](CCCCNC(=O)c1cnccn1)C(=O)N[C@@H](CC(C)C)C(=O)N[C@@H](CCCNC(C)C)C(=O)N1CCC[C@H]1C(=O)N[C@H](C)C(N)=O` [compound 25991] (Ac-[d2Nal][dPhe(4-Cl)][d3Pal]SK(Nicotinoyl)[dK](Pyrazinecarbonyl)L[Orn(iPr)]P[dA]-NH2), the “Wheal Area” value is 104.3 ± 10.5 mm^2 /10 μg.

Regarding `CC(=O)N[C@H](Cc1ccc2ccccc2c1)C(=O)N[C@H](Cc1ccc(Cl)cc1)C(=O)N[C@H](Cc1cccnc1)C(=O)N[C@@H](CO)C(=O)N[C@@H](C[C@H]1CC[C@@H](NC(=O)c2cnccn2)CC1)C(=O)N[C@H](Cc1cnccn1)C(=O)N[C@@H](CC(C)C)C(=O)N[C@@H](CCCNC(=N)N)C(=O)N1CCC[C@H]1C(=O)N[C@H](C)C(N)=O` [compound 26417] (Ac-[d2Nal][dPhe(4-Cl)][d3Pal]S[X2][X10]LRP[dA]-NH2), the “Wheal Area” value amounted to 133.2 ± 11.8 mm^2 /10 μg. As to `CCC[C@H](NC(=O)[C@@H](CCCCNC(=O)c1ccccn1)NC(=O)[C@H](CCCCNC(=O)c1ccccn1)NC(=O)[C@H](CO)NC(=O)[C@@H](Cc1cccnc1)NC(=O)[C@@H](Cc1ccc(Cl)cc1)NC(=O)[C@@H](Cc1ccc2ccccc2c1)NC(C)=O)C(=O)N[C@@H](CCCCNC(C)C)C(=O)N1CCC[C@H]1C(=O)N[C@H](C)C(N)=O` [compound 25989] (Ac-[d2Nal][dPhe(4-Cl)][d3Pal]SK(Picolinoyl)[dK](Picolinoyl)[Nva][Lys(iPr)]P[dA]-NH2), the “Wheal Area” value was determined as 95.3 ± 6.0 mm^2 /10 μg. Take `CC(=O)N[C@H](Cc1ccc2ccccc2c1)C(=O)N[C@H](Cc1ccc(Cl)cc1)C(=O)N[C@H](Cc1cccnc1)C(=O)N[C@@H](CO)C(=O)N[C@@H](CCCCNC(=O)c1ccccn1)C(=O)N[C@H](C[C@H]1CC[C@@H](NC(=O)c2cnccn2)CC1)C(=O)N[C@@H](CC(C)C)C(=O)N[C@@H](CCCNC(C)C)C(=O)N1CCC[C@H]1C(=O)N[C@H](C)C(N)=O` [IBR 26181] (Ac-[d2Nal][dPhe(4-Cl)][d3Pal]SK(Picolinoyl)[dAla(cis-4-NHCOPyz-cHex)]L[Orn(iPr)]P[dA]-NH2): the “Wheal Area” value was found to be 101.6 ± 2.2 mm^2 /10 μg.

The data set is the same for the next values; noted with them: Table I; 10 ug peptide intradermally.
As for `CC(=O)N[C@H](Cc1ccc2ccccc2c1)C(=O)N[C@H](Cc1ccc(Cl)cc1)C(=O)N[C@H](Cc1cccnc1)C(=O)N[C@@H](CO)C(=O)N[C@@H](CCCCNC(=O)c1cccnc1)C(=O)N[C@H](CCCCNC(=O)c1cccnc1)C(=O)N[C@@H](CC(C)C)C(=O)N[C@@H](CCCNc1nc(C)cc(C)n1)C(=O)N1CCC[C@H]1C(=O)N[C@H](C)C(N)=O` [compound 25143] (Ac-[d2Nal][dPhe(4-Cl)][d3Pal]SK(Nicotinoyl)[dK](Nicotinoyl)L[Orn](Pyrimidin2yl(4,6-Me2))P[dA]-NH2), the Wheal was found to be 113.6 mm^2 /10. The same measure, in the same setting: with `CC(=O)N[C@H](Cc1ccc2ccccc2c1)C(=O)N[C@H](Cc1ccc(Cl)cc1)C(=O)N[C@H](Cc1cccnc1)C(=O)N[C@@H](CO)C(=O)N[C@@H](CCCCNC(=O)c1cccnc1)C(=O)N[C@@H](CCCCNC(=O)c1cccnc1)C(=O)N[C@@H](CC(C)C)C(=O)N[C@@H](CCCCNC(C)C)C(=O)N1CCC[C@H]1C(=O)N[C@H](C)C(N)=O` [compound 24934] (Ac-[d2Nal][dPhe(4-Cl)][d3Pal]SK(Nicotinoyl)K(Nicotinoyl)L[Lys(iPr)]P[dA]-NH2) the figure was 123 ± 5.9 mm^2 /10.

In the case of `CC(=O)N[C@H](Cc1ccc2ccccc2c1)C(=O)N[C@H](Cc1ccc(Cl)cc1)C(=O)N[C@H](Cc1cccnc1)C(=O)N[C@@H](CO)C(=O)N[C@@H](CCCCNC(=O)c1cccnc1)C(=O)N[C@H](CCCCNC(C)C)C(=O)N[C@@H](CC(C)C)C(=O)N[C@@H](CCCNC(=N)N)C(=O)N1CCC[C@H]1C(=O)N[C@H](C)C(N)=O` [compound 24754] (Ac-[d2Nal][dPhe(4-Cl)][d3Pal]SK(Nicotinoyl)[dLys(iPr)]LRP[dA]-NH2), the Wheal stood at 196.9 ± 4.1 mm^2 /10. The same measure, in the same setting: in the case of `CC(=O)N[C@H](Cc1ccc2ccccc2c1)C(=O)N[C@H](Cc1ccc(Cl)cc1)C(=O)N[C@H](Cc1cccnc1)C(=O)N[C@@H](CO)C(=O)N[C@@H](CCCCNC(=O)c1ccc(C)nc1)C(=O)N[C@H](CCCCNC(=O)c1ccc(C)nc1)C(=O)N[C@@H](CC(C)C)C(=O)N[C@@H](CCCCNC(C)C)C(=O)N1CCC[C@H]1C(=O)N[C@H](C)C(N)=O` [compound 25386] (Ac-[d2Nal][dPhe(4-Cl)][d3Pal]SK(Nicotinoyl(6-Me))[dK](Nicotinoyl(6-Me))L[Lys(iPr)]P[dA]-NH2) it was 126.1 mm^2 /10.

Still in this data set, the particulars now being: Table XIV and text, unit not given.
With `CC(=O)N[C@H](Cc1ccc2ccccc2c1)C(=O)N[C@H](Cc1ccc(Cl)cc1)C(=O)N[C@H](Cc1cccnc1)C(=O)N[C@@H](CO)C(=O)N[C@@H](CCCCNC(=O)c1ccccn1)C(=O)N[C@H](C[C@H]1CC[C@@H](NC(=O)c2cnccn2)CC1)C(=O)N[C@@H](CC(C)C)C(=O)N[C@@H](CCCNC(C)C)C(=O)N1CCC[C@H]1C(=O)N[C@H](C)C(N)=O` [compound 26181] (Ac-[d2Nal][dPhe(4-Cl)][d3Pal]SK(Picolinoyl)[dAla(cis-4-NHCOPyz-cHex)]L[Orn(iPr)]P[dA]-NH2), the “Wheal (wheal response)” value was 101.6 ± 2.2. The same measure, in the same setting: in the case of `CC[C@@H](C)[C@H](NC(=O)[C@@H](CCCCNC(=O)c1ccccn1)NC(=O)[C@H](CCCCNC(=O)c1ccccn1)NC(=O)[C@H](CO)NC(=O)[C@@H](Cc1cccnc1)NC(=O)[C@@H](Cc1ccc(Cl)cc1)NC(=O)[C@@H](Cc1ccc2ccccc2c1)NC(C)=O)C(=O)N[C@@H](CCCCNC(C)C)C(=O)N1CCC[C@H]1C(=O)N[C@H](C)C(N)=O` [IBR 25936] (Ac-[d2Nal][dPhe(4-Cl)][d3Pal]SK(Picolinoyl)[dK](Picolinoyl)[aIle][Lys(iPr)]P[dA]-NH2) it was 97.9±2.9.
